{"source": "patent US20100093648A1", "about": "“TREATMENT OF MACULAR DEGENERATION-RELATED DISORDERS” (priority 2008, published 2010)", "test_system": "APOE4 HF-C mice", "assay": "Electroretinogram (ERG) in aged APOE4 mice on high fat/cholesterol diet (murine AMD model)", "assay_type": "in vivo, mouse", "settings": "aged male APOE4 mice, high cholesterol diet 8 weeks, scyllo-inositol 10 mg/ml in drinking water ad libitum", "description": "The ocular pathologies of AMD may be recapitulated in a murine model by applying three physiologically relevant risk factors: specific APOE genotype (APOE4), advanced age and high fat/cholesterol-rich (HF-C) diet. These mice develop sub-retinal pigment epithelium (RPE) deposits (basal deposits), RPE atrophy and choroidal neovascularization in a temporal, non-fully penetrant manner that is analogous to human AMD progression [Malek, G., et al., (2005), Proc Natl Acad Sci USA 102, 11900-5]. An electrophysiological phenotype is associated with this pathology. […] The ability of scyllo-inositol (AZD-103/ELN005) to prevent retina/RPE damage, the buildup of basal deposits and attenuation of the ERG was evaluated.\nAged male APOE4 mice housed conventionally, under ambient conditions maintained on water ad libitum and normal mouse chow (normal diet or ND), were assigned to three treatment groups. This assignment was random, although the ages of the animals were balanced across the groups. One group was maintained on the normal diet. The second group was switched to a high fat cholesterol (HFC) diet (35% fat, 20% protein, 45% carbohydrates, 1.25% cholesterol, 0.5% sodium cholate) for 8 weeks. The third group received scyllo-inositol (AZD-103/ELN005) ad libitum (dissolved in drinking water at 10 mg/ml) for 7 days. They were then switched to the HF-C diet for 8 weeks, during which time they continued to receive scyllo-inositol (AZD-103/ELN005) ad libitum. […] ERG tracings were recorded using a platinum iridium wire loop electrode placed in contact with the eye along with a drop of 2.5% hydroxypropyl methylcellulose. […] The a-wave amplitude was measured from baseline to the a-wave trough, and the b-wave amplitude was measured from the a-wave trough to the b-wave peak. • 4. […] Quantitation of photoreceptors. […] The thickness of outer nuclear layer and the linear density of photoreceptor will be calculated. […]\nAfter 8 weeks, animals were assessed by electroretinogram. […] The electrophysiological response to these flashes was recorded by an electrode touching the surface of the eye. […]"}
{"substance": "scyllo-inositol [scyllo-inositol (AZD-103/ELN005)]", "values": [{"measurement": "a-wave amplitude (ERG)", "value": "consistent"}, {"measurement": "retinal function as demonstrated by ERGs", "value": "prevented the retinal defect that was caused by high cholesterol diet"}, {"measurement": "scotopic b-wave amplitude (ERG)", "setting": "all flash intensities, compared with normal diet controls", "value": "virtually indistinguishable from the normal diet control animals"}]}
